From ChEMBL document CHEMBL4814079, “Structure-Activity Relationship for the Picolinamide Antibacterials that Selectively Target Clostridioides difficile” (ACS Med Chem Lett, 2021)
In brackets after ≈: the same amount, converted by molar mass.

How the values were obtained:
HeLa [1] = assay: Cytotoxicity against human HeLa cells assessed as reduction in cell viability incubated for 16 hrs by XTT assay; type: cell-based
Fusobacterium nucleatum = assay: Antibacterial activity against gut Fusobacterium nucleatum HM-992 assessed as reduction in bacterial growth measured after 48 hrs by CLSI based broth microdilution method; type: organism-based; conditions: in vitro
Eubacterium sp. = assay: Antibacterial activity against gut Eubacterium sp. HM-178 assessed as reduction in bacterial growth measured after 48 hrs by CLSI based broth microdilution method; type: organism-based
[2] = Antibacterial activity against gut Limosilactobacillus-reuteri HM-102 assessed as reduction in bacterial growth measured after 48 hrs by CLSI based broth microdilution method
Clostridioides difficile = assay: Antibacterial activity against Clostridium difficile ATCC 43255 assessed as reduction in bacterial growth measured after 48 hrs by CLSI based broth microdilution method; type: functional
Staphylococcus aureus = assay: Antibacterial activity against […] Staphylococcus aureus ATCC 29213 assessed as reduction in bacterial growth measured after 48 hrs by CLSI based broth microdilution method; type: functional
Corynebacterium = assay: Antibacterial activity against gut Corynebacterium HM-784 assessed as reduction in bacterial growth measured after 48 hrs by CLSI based broth microdilution method; type: organism-based
Lactobacillus gasseri = assay: Antibacterial activity against gut Lactobacillus gasseri HM-664 assessed as reduction in bacterial growth measured after 48 hrs by CLSI based broth microdilution method; type: organism-based; conditions: in vitro
Bacteroides fragilis = assay: Antibacterial activity against gut Bacteroides fragilis HM-709 assessed as reduction in bacterial growth measured after 48 hrs by CLSI based broth microdilution method; type: organism-based; conditions: in vitro
[3] = Plasma concentration in CD1 mouse at 20 mg/kg, po measured upto 8 hrs by LC-MS/MS analysis; type: ADME, organism-based; conditions: in vivo, BLD = below limit of detection
[4] = Drug excretion in CD1 mouse feces at 20 mg/kg, po measured upto 8 hrs by LC-MS/MS analysis; type: ADME, organism-based; conditions: in vivo
[5] = Selectivity index, ratio of MIC of […] Staphylococcus aureus ATCC 29213 to MIC of Clostridium difficile ATCC 43255; type: functional
Bifidobacterium longum = assay: Antibacterial activity against gut Bifidobacterium longum HM-846 assessed as reduction in bacterial growth measured after 48 hrs by CLSI based broth microdilution method; type: organism-based
Veillonella = assay: Antibacterial activity against gut Veillonella sp HM-49 assessed as reduction in bacterial growth measured after 48 hrs by CLSI based broth microdilution method; type: organism-based; conditions: in vitro
[6] = Ratio of drug excretion in CD-1 mouse feces to MIC for antibacterial activity against Clostridium difficile ATCC 43255; type: toxicity; conditions: in vivo
Enterococcus faecium = assay: Antibacterial activity against Enterococcus faecium ATCC 19434 assessed as reduction in bacterial growth measured after 48 hrs by CLSI based broth microdilution method; type: functional
HeLa [7] = assay: Cytotoxicity against human HeLa cells assessed as reduction in cell viability at 256 ug/ml incubated for 16 hrs by XTT assay; type: cell-based; conditions: dose 256 µg/ml

| Compound | MIC (Fusobacterium nucleatum) [µg/mL] | MIC (Eubacterium sp.) [µg/mL] | MIC [2] [µg/mL] | MIC (Clostridioides difficile) [µg/mL] | MIC (Staphylococcus aureus) [µg/mL] | MIC (Lactobacillus gasseri) [µg/mL] | MIC (Bacteroides fragilis) [µg/mL] | Ratio [5] | MIC (Bifidobacterium longum) [µg/mL] | MIC (Veillonella) [µg/mL] | other results |
| --- | --- | --- | --- | --- | --- | --- | --- | --- | --- | --- | --- |
| O=C(Nc1ncco1)c1ccnc(Oc2ccc(Cl)c(Cl)c2)c1 | – | – | – | – | – | – | – | – | – | – | IC50 (HeLa [1]): 37 µg/mL |
| O=C([O-])c1ccc2oc(NC(=O)c3cc(Oc4cccc(OC(F)(F)F)c4)ccn3)nc2c1.[Na+] | 4 | 16 | 4 | 0.125 | 16 | > 16 | 4 | 128 | 16 | 16 | MIC (Corynebacterium): 8 µg/mL; Cp [3]: Bld; Drug excretion [4]: 13 µg/g; Ratio [6]: 108 |
| O=C(Nc1ncco1)c1cc(Oc2ccc(OC(F)(F)F)cc2)ccn1 | – | – | – | 1 (≈ 2.74 µM) | 128 (≈ 350 µM) | – | – | 128 | – | – | – |
| O=C(Nc1ncco1)c1ccnc(-c2ccc(Cl)c(Cl)c2)c1 | 8 (≈ 23.9 µM) | > 16 | 8 (≈ 23.9 µM) | 0.25 (≈ 0.748 µM) | 25 (≈ 74.8 µM) | > 16 | 1 (≈ 2.99 µM) | – | > 16 | 4 (≈ 12 µM) | MIC (Corynebacterium): 0.5 µg/mL (≈ 1.5 µM); MIC (Enterococcus faecium): 0.06 µg/mL (≈ 0.18 µM); IC50 (HeLa [1]): 79.9 µM; Cp [3]: Bld; Drug excretion [4]: 2.8 µg/g; Ratio [6]: 11 |
| O=C(Nc1ncco1)c1cc(-c2ccc(Cl)c(F)c2)ccn1 | – | – | – | 0.25 (≈ 0.787 µM) | 128 (≈ 403 µM) | – | – | 512 | – | – | Activity (HeLa [7]): Non-Toxic |
| CCc1c(Cl)c(O)c(Cl)c(O)c1C(=O)O[C@H]1[C@H](O)[C@H](OC)[C@H](OC/C2=C\C=C\C[C@H](O)/C(C)=C/[C@H](CC)[C@@H](O[C@@H]3OC(C)(C)[C@@H](OC(=O)C(C)C)[C@H](O)[C@@H]3O)/C(C)=C/C(C)=C/C[C@@H]([C@@H](C)O)OC2=O)O[C@@H]1C [FIDAXOMICIN] | < 0.0625 | 16 (≈ 15.1 µM) | > 32 | 0.0625 (≈ 0.0591 µM) | – | 2 (≈ 1.89 µM) | > 32 | – | < 0.01 | 8 (≈ 7.56 µM) | MIC (Corynebacterium): < 0.0625 µg/mL |
| COC(=O)c1ccc2oc(NC(=O)c3cc(Oc4ccc(F)c(F)c4)ccn3)nc2c1 | – | – | – | 0.25 (≈ 0.588 µM) | 64 (≈ 150 µM) | – | – | 256 | – | – | – |
| O=C(Nc1ncco1)c1cc(-c2ccc(C(F)(F)F)cc2)ccn1 | – | – | – | 0.25 (≈ 0.75 µM) | 128 (≈ 384 µM) | – | – | 512 | – | – | – |
| O=C(Nc1ncco1)c1cc(Oc2cccc(OC(F)(F)F)c2)ccn1 | 8 (≈ 21.9 µM) | 8 (≈ 21.9 µM) | 4 (≈ 11 µM) | 1 (≈ 2.74 µM) | 64 (≈ 175 µM) | > 16 | 8 (≈ 21.9 µM) | 64 | 16 (≈ 43.8 µM) | 16 (≈ 43.8 µM) | MIC (Corynebacterium): > 16 µg/mL; Cp [3]: Bld; Drug excretion [4]: 49 µg/g; Ratio [6]: 49 |
| CN[C@H](CC(C)C)C(=O)N[C@H]1C(=O)N[C@@H](CC(N)=O)C(=O)N[C@H]2C(=O)N[C@H]3C(=O)N[C@H](C(=O)N[C@H](C(=O)O)c4cc(O)cc(O)c4-c4cc3ccc4O)[C@H](O)c3ccc(c(Cl)c3)Oc3cc2cc(c3O[C@@H]2O[C@H](CO)[C@@H](O)[C@H](O)[C@H]2O[C@H]2C[C@](C)(N)[C@H](O)[C@H](C)O2)Oc2ccc(cc2Cl)[C@H]1O [VANCOMYCIN] | 0.25 (≈ 0.173 µM) | 2 (≈ 1.38 µM) | > 32 | – | – | 1 (≈ 0.69 µM) | 16 (≈ 11 µM) | – | 0.25 (≈ 0.173 µM) | > 32 | – |
| O=C(Nc1ncco1)c1cc(-c2ccc(Cl)cc2)ccn1 | – | – | – | 4 (≈ 13.3 µM) | 128 (≈ 427 µM) | – | – | 32 | – | – | – |
| O=C(O)c1ccc2oc(NC(=O)c3cc(-c4ccc(OC(F)(F)F)cc4)ccn3)nc2c1 | – | – | – | 0.03 (≈ 0.0677 µM) | 8 (≈ 18 µM) | – | – | 256 | – | – | IC50 (HeLa [1]): 79.9 µg/mL |
| COc1ccc(Oc2ccnc(C(=O)Nc3ncco3)c2)cc1 | – | – | – | 1 (≈ 3.21 µM) | ≥ 256 | – | – | > 256 | – | – | – |
| O=C(Nc1ncco1)c1cc(-c2ccc(F)c(Cl)c2)ccn1 | – | – | – | 0.25 (≈ 0.787 µM) | 128 (≈ 403 µM) | – | – | 512 | – | – | – |
| O=C(Nc1ncco1)c1cc(-c2ccc(OC(F)(F)F)cc2)ccn1 | – | – | – | 0.25 (≈ 0.716 µM) | 125 (≈ 358 µM) | – | – | 512 | – | – | – |
